Experimental data published in publication PMC8305768, “Design, Synthesis and Antiparasitic Evaluation of Click Phospholipids” (Molecules, 2021).
Counter-ions that a name gives are not always drawn.

What was measured:
[1] = test system: T. cruzi Y strain intracellular amastigotes; assay: Activity against T. cruzi Y strain intracellular amastigotes (HG39 cell-line, parasite load); assay type: cell-based; settings: Trypanosoma cruzi, read-out: Parassite Load Reduction (%)
Procedure: T. cruzi epimastigotes (Y strain) were obtained by axenic cultivation in the LIT medium, supplemented with 10% FBS (Cultilab, São Paulo, Brazil). Cultures were maintained at […] for 4–5 days until they reached the log growth phase. New cultures were made every 4 days from the initial inoculum of 2 × 10^6 parasites/mL. T. cruzi trypomastigotes (Y strain) were maintained in culture by the infection of LLC-MK2 (ATTC-CCL7) epithelial cells. This cell line was cultured in […] tissue culture bottles (TPP) in RPMI 1640 medium (Gibco), (Thermo Fischer Scientific, Carlsbad, CA, USA) supplemented with 10% FBS (Gibco) (Thermo Fischer Scientific, Carlsbad, CA, USA). Cultures were maintained at 37 °C under 5% CO2 atmosphere, and RPMI 1640 medium and SFB were exchanged every 48 h. After confluence, the cultures were treated with 1 mL of a mixture of trypsin and versene (Sigma, São Paulo, Brazil) (0.2 and 0.002%, respectively). After 24 h, a subconfluence culture was infected with the trypomastigotes in the approximate proportion of 10:1 parasites/cell. From five to seven days post infection, the trypomastigote stage was obtained from the culture supernatant. Alternatively (Figure 2), T. cruzi strain Y was maintained as previously described.

[2] = test system: L. donovani strain BPK190 amastigotes; assay: Activity against L. donovani intramacrophage amastigotes (bone marrow-derived macrophages, qPCR); assay type: cell-based, Leishmania donovani; settings: Leishmania donovani, Macrophage, infected bone marrow-derived macrophages, 48 h, read-out: Parassite Load Reduction (%)
Procedure: L. donovani strain BPK 190 [55] was cultivated at 25 °C in modified Medium199 (Sigma-Aldrich, with 20% heat-inactivated FCS, 40 mM HEPES pH 7.4, 0.2% NaHCO3, 100 μM adenin, 1.2 μg/mL 6-biopterin and 10 μg/mL haem, with 1 × Pen/Strep/l-glutamine (Sigma, Saint Louis, MI, USA), pH 7.0).
Activity against L. donovani strain BPK190 was tested in vitro using bone marrow-derived macrophages as host cells. Infection was established for 24 h prior to the addition of compounds from 10 mM stocks in DMSO. Parasite load was determined 48 h later by quantifying Leishmania actin DNA relative to mouse actin DNA using real time qPCR as described.

[3] = test system: T. b. brucei L427 WT bloodstream form; assay: Activity against T. brucei bloodstream forms (resazurin-based assay); assay type: cell-based; settings: Trypanosoma brucei, 72 h
Procedure: Trypanosoma brucei brucei Lister 427 bloodstream forms were grown at 37 °C, 5% CO2 in complete HMI-9 medium supplemented with 10% foetal calf serum (FCS) and 100 UI/mL of penicillin/streptomycin. […] The efficacy of compounds against T. brucei bloodstream forms was evaluated using a modified resazurin-based assay previously described. Mid-log bloodstream forms were added to an equal volume of serial dilutions of compounds in supplemented complete HMI-9 medium at a final cell density of 5 × 10^3/mL. Following incubation for 72 h at 37 °C 5% CO2, 20 μL of a 0.5 mM resazurin solution was added and plates were incubated for a further 4 h under the same conditions. Fluorescence was measured at 540 nm and 620 nm excitation and emission wavelength, respectively, using a Synergy 2 Multi-Mode Reader (Biotek, Winooski, VT, USA).

[4] = Cytotoxicity against THP-1 macrophages (MTT); assay type: cell-based; settings: human, PMA-differentiated THP-1 macrophages, read-out: Toxicity CC50 ± SD Or CC50 Interval Estimation
Procedure: The effect of compounds selected compounds on THP-1-derived macrophages was assessed by the colorimetric MTT assay (3-(4,5-dimethylthiazol-2-yl)-2,5-diphenyl tetrazolium bromide). Briefly, 1 × 10^5 THP-1 cells/mL were differentiated into macrophages by addition of 20 ng/mL of phorbol-myristate 13-acetate (PMA, Sigma, Saint Louis, MI, USA) for 18 h, followed by replacement with fresh medium for 24 h. Cells were incubated with 100 µL of compounds ranging from 100 to 1 µM after dilution in the RPMI complete medium containing a maximum amount of 1% DMSO. After incubation for 72 h, the medium was removed and 100 µL of 0.5 mg/mL MTT solution diluted in RPMI was added. Plates were incubated for an additional 4 h to allow viable cells to convert MTT into a purple formazan product. Solubilization of formazan crystals was achieved by the addition of 2-propanol and absorbance was read at 570 nm using a Synergy 2 Multi-Mode Reader (Biotek, Winooski, VT, USA). Cytotoxicity was evaluated by the determination of the CC50 value (drug concentration that reduced the percentage of viable cells in 50%) and calculated by non-linear regression analysis using GraphPad Prism version 8.1.1 for Windows (GraphPad Software, San Diego, CA, USA).

CYP1A2 = target: T1, CYP1A2 (Homo sapiens, UniProt P05177); assay: Cytochrome P450 inhibition assay (P450-Glo) CYP1A2; assay type: in vitro ADME; settings: compounds 10 μM; miltefosine 10 μM or 1 μM
T1 construct: purchased Corning Inc; host or cells: baculovirus-infected insect cells
T1 sequence (P05177 2-516 limits assumed): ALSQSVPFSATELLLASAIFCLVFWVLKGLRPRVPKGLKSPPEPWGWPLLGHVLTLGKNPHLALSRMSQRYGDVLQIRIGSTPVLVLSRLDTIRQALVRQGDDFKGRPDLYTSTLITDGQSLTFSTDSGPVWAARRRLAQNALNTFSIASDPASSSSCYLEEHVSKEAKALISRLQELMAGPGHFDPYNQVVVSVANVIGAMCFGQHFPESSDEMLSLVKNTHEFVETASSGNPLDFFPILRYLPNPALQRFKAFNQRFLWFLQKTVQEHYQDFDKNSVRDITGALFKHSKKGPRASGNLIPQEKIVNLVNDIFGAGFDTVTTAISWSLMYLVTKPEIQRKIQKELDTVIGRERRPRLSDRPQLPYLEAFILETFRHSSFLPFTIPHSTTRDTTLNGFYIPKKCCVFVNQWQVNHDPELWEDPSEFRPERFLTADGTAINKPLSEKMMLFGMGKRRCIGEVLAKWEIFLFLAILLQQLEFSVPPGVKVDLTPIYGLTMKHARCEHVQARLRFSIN
From the text: Cytochrome (CYP) P450 inhibition assay: These assays made use of microsomal preparations of CYP450 (1A2, 2C9, 2C19, 2D6 and 3A4) from baculovirus-infected insect cells (Corning Inc., Corning, NY, USA) and cytochrome c reductase (and cytochrome b5 for CYP450 3A4). For detection of CYP450 activity, the luminescence-based P450-Glo (Promega Corp., Madison, WI, USA) assay system was used that contained a luminogenic CYP450 substrate, lyophilized luciferin detection reagent and reconstitution buffer. The substrates were luciferin derivatives of CYP450-specific substrates that produce (4S)-4,5-dihydro-2-(6-hydroxybenzothiazolyl)-4-thiazolecarboxylic acid (D-luciferin) after cleavage by CYP450 (CYP450 3A4, luciferin-IPA; CYP450 2C19, luciferin-H EGE; CYP450 2C9, luciferin-H; CYP450 2D6, luciferin-ME EGE; CYP450 1A2, luciferin-1A2). CYP450 reactions were initiated by addition of the NADPH regeneration system to the enzyme–substrate mixture with the luciferin detection reagent stopping the reaction and the D-luciferin being converted to oxyluciferin under the production of light being proportional to the CYP450 activity. The CYP450 assays were performed using the Tecan Fluent liquid-handling automation platform (Tecan Group Ltd., Mannedorf, Switzerland) in the 384-well assay format. Compounds were added into an empty 384-well plate (100 nL/well in 1% v/v DMSO) using the Echo 550 Liquid Handler followed by the addition of 5 μL/well of the CYP450/substrate mixture and incubation for 30 min at 37 °C, after which the reaction was initiated by the addition of the 5 μL/well NADPH regeneration system. After a further 30-min incubation at 37 °C, the CYP450 reaction was stopped and the luciferase reaction was simultaneously initiated by addition of 10 μL/well of luciferin detection reagent, followed by an additional 30-min incubation at 37 °C. The luminescence signal was detected using an Infinite M1000 PRO plate reader (Tecan Group Ltd., Mannedorf, Switzerland). The NCs yielded 0% inhibition (1% v/v DMSO) and standard CYP450 specific inhibitors were used as positive controls, yielding 100% inhibition (CYP450 1A2, alpha-naphthoflavone; CYP450 2C9, sulfaphenazole; CYP450 2C19, troglitazone; CYP450 2D6, quinidine; CYP450 3A4, ketoconazole).
Data analysis: The screening data were obtained in triplicate and analysed using ActivityBase (IDBS, Guildford, UK), and outlier elimination in the control wells was performed using the 3-sigma method. Unless stated, dose–response experiments were performed in the 11-point format with the IC50 value, Hill slope, minimum signal and maximum signal for each dose–response curve obtained using a four-parameter logistic fit in the XE module of ActivityBase (IDBS).

Row | Compound | inhibition of growth at 10 µM [1] [%] | inhibition of growth at 5 µM [2] [%] | inhibition at 10 µM ([3]; 10 μM, read-out: Single Dose Assay 10μM Mean Inhibitory Activity (%) ± SD) [%] | CC50 at 72 h [4] [µM] | % inhibition ± SD at 10 μΜ CYP1A2 (CYP1A2) | IC50 ([3]; read-out: Dose Response Curves IC50 ± SD) [µM]
1 | C[N+](C)(C)CCOP(=O)([O-])OCCCCCCCCCCCn1cc(CCCCCCCCN)nn1 [Compound 36, 11-(4-(8-aminooctyl)-1H-1,2,3-triazol-1-yl)undecyl (2-(trimethylammonio)ethyl) phosphate inner salt] | 0 | 20.3 | 30 ± 7 | > 100 | 3.18% | 
2 | C[N+](C)(C)CCOP(=O)([O-])OCCCCCCCCCCCn1cc(CCCCCCCCC(=O)OCc2ccccc2)nn1 [Compound 30, 11-(4-(9-(benzyloxy)-9-oxononyl)-1H-1,2,3-triazol-1-yl)undecyl (2-(trimethyl ammonio)ethyl) phosphate inner salt] | 69.7 | 0 |  | > 100 | –2.91% | 
3 | CC1CS(=O)(=O)CCN1/N=C/c1ccc([N+](=O)[O-])o1 (centres unmarked) [Nifurtimox, reference compound] | 81.2 |  |  |  |  | 
4 | N=C(N)c1ccc(OCCCCCOc2ccc(C(=N)N)cc2)cc1 [Pentamidine, reference compound] |  |  |  |  |  | 0.00155 ± 0.00024
